These results are taken from patent US20200022967A1, “Use of 2-carboxamide cycloamino urea derivatives in the treatment of EGFR dependent diseases or diseases that have acquired resistance to agents that target EGFR family members” (Novartis AG, priority 2010, published 2020).

Data set [1] can be described thus: Body weight change in BT474 xenograft mice (Example 1). The format is in vivo. Particulars: for mean body weight change: not significant; for mean change of body weight: 50 mg/kg p.o. once daily, p<0.05. How it is done: (§1) Tumor volumes were measured with calipers and determined according to the formula: length×diameter^2×π/6. […] Regressions (%) were calculated according to the formula ((mean tumor volume at end of treatment-mean tumor volume at start of treatment)/mean tumor volume at start of treatment)×100. Body weights and tumor volumes were recorded twice a week.
(§2) Where applicable, data is presented as mean±SEM. For all tests, the level of significance was set at p<0.05. For tumor volumes, comparisons between treatment groups and vehicle control group were done using one-way ANOVA followed by Dunnett's test. The level of significance of body weight change within a group between the start and the end of the treatment period was determined using a paired t-test. Comparisons of delta body weights between treatment and vehicle control groups were performed by a one-way ANOVA followed by a post hoc Dunnett's test.

The subject of the next data set is HCC1954. Briefly: Cell proliferation in HCC1954 breast cancer model. The class given is cell-based.
Data set [2] is described as follows: Body weight nadir and deaths in NCI-N87 trastuzumab study (Example 4). The class given is in vivo, mice. The source says: Treatments started 9 days post tumor cell implantation and lasted for 30 consecutive days (or until tumor volume=2000 mm^3).
The nature of data set [3]: Body weight change in NCI-N87 xenograft mice (Example 2). The format is in vivo. Particulars: 50 mg/kg p.o. once daily; not significant. How it is done: as §1, §2
The test system of the next data set is BT-474 tumors. Nature of the data set: BT474 orthotopic breast cancer xenograft, antitumor activity (Example 1). The class given is in vivo, mice. As for the experimental part: Experiments were performed in female HsdNpa:Athymic Nude-nu mice approximately 8-12 weeks of age at treatment start. All animals were housed under Optimized Hygienic conditions in Makrolon type III cages (max. 10 animals per cage) with free access to food and water.
BT-474 cells, which are human breast ductal carcinoma cells and ErbB2 amplified with a PIK3CA mutation K111N, were grown in DMEM culture medium containing 4.5 g/l glucose supplemented with 10% heat-inactivated FCS, 2 mM L-glutamine, 1 mM sodium pyruvate and incubated at 37° C. in a 5% CO2 humidified atmosphere. Cell culture reagents were purchased from BioConcept (Allschwil, Switzerland).
BT-474 tumors were established in vivo by injection 3×10^6 cells in 30 μl HBSS (Sigma # H8264) containing 1 mg/ml Matrigel (BD #34234) orthotopically into the 3rd mammary gland on the right side of the animals. The efficacy experiments started when the tumors reached an average size of approximately 130 mm^3 (day 14-16 post cell injection). The PK/PD experiment was performed when the tumors reached a size of 150-250 m m^3 (day 22 after cell injection). On the day of cell injection, a 0.025 17β Estradiol pellent has been implanted subcutaneously on the left flank into each experimental animal under Forene® inhalation narcosis.
The Compound was fully dissolved in NMP. Then, PEG300 and liquified Solutol were added (in sequence with vortexing after addition of each reagent). Water was added immediately prior to administration to the animals. Compound A or vehicle was administered orally at a volume of 10 ml/kg.
as §1, §2
In the first experiment, Compound A was orally administered daily to BT-474 orthotopic xenografts, tumor-bearing nude mice at a dose of 50 mg/kg. […] Compound A administered orally at 50 mg/kg once daily produces a mean tumor change of tumor volume of −29.7±15.6 mm^3 (p<0.01, ANOVA and post-hoc Dunnett's) as compared to vehicle (mean tumor change of 315.1±16.4 mm^3), with a 23.0% regression in the first experiment.
In a second experiment, Compound A was orally administered daily to BT-474 orthotopic xenografts, tumor-bearing nude mice at doses of 12.5, 25 and 50 mg/kg. […] (See FIG. 1). Compound A administered orally at 12.5, 25 and 50 mg/kg once daily produces a mean change of tumor volume of 171.8±33.0 mm^3 (p<0.01, ANOVA and post-hoc Dunnett's), 95.5±26.5 mm^3 (p<0.01, ANOVA and post-hoc Dunnett's), and 20.8±15.9 mm^3 (p<0.01, ANOVA and post-hoc Dunnett's) respectively as compared to vehicle (mean change of tumor volume of 557.7±79.0 mm^3) in the second experiment. (See FIG. 3)

Where [4] appears, read: Group 3: Compound A 25 mg/kg p.o. once daily.
[5] abbreviates: Group 4: Compound A 50 mg/kg p.o. once daily.

The structures appear in SMILES notation.

For the compound `Cc1nc(NC(=O)N2CCC[C@H]2C(N)=O)sc1-c1ccnc(C(C)(C)C(F)(F)F)c1` [Compound A, (S)-Pyrrolidine-1,2-dicarboxylic acid 2-amide 1-({4-methyl-5-[2-(2,2,2-trifluoro-1,1-dimethyl-ethyl)-pyridin-4-yl]-thiazol-2-yl}-amide)], the “mean body weight change” value in data set [1] (12.5 mg/kg p.o. once daily) was 1.4±1.2%; in data set [1] (25 mg/kg p.o. once daily), −1.2±1.2%. Besides, the “mean change of body weight” value in data set [1] (first of the two experiments) came to 10.6±4.1%; in data set [1] (second of the two experiments), 8.2±2.6%; in data set [3], 3.8±2.1%. In the data set with HCC1954 (HCC1954, overexpressed ErbB2), the cell death entry is “induces cell death”. In the data set with HCC1954 (HCC1954 breast cancer model, read-out: median GI50), the GI50 was 687 ± 132 nM. Moreover, the “Deaths (TR/NTR)” value in data set [2] (Group 2 (8 animals): Compound A 12.5 mg/kg p.o. once daily) came to 0. Moreover, the “Mean BW Nadir (lowest group mean BW)” value is listed as −7% (Day 22) in data set [2] (Group 2: Compound A 12.5 mg/kg p.o. once daily, Day 22); −12.2% (Day in data set [2] (Group 3: Compound A 25 mg/kg p.o. once daily, Day 26); −13.1% (Day in data set [2] (Group 4: Compound A 50 mg/kg p.o. once daily, Day 12). The “Deaths NTR = non-treatment related” value in data set [2] (setting [4]) is reported as “NTR: 1”; in data set [2] (setting [5]), “NTR: 0”. The “Deaths TR = treatment-related” value in data set [2] (setting [4]) was “TR: 1”; in data set [2] (setting [5]) it was “TR: 4”. Also, the “antitumor effect as compared to vehicle” value in the data set with BT-474 tumors (12.5, 25 and 50 mg/kg p.o. once daily, p<0.05 ANOVA) is recorded as “statistically significant antitumor effect”. This compound also gave a regression in the data set on BT-474 tumors (first experiment, 50 mg/kg p.o. once daily) of 23.0%. The “mean change of tumor volume” value in the data set with BT-474 tumors (first experiment, 50 mg/kg p.o. once daily, vehicle 315.1±16.4) was −29.7±15.6 mm^3; in the data set on BT-474 tumors (second experiment, 12.5 mg/kg p.o. once daily, vehicle 557.7±79.0), 171.8±33.0 mm^3; in the data set with BT-474 tumors (second experiment, 25 mg/kg p.o. once daily, vehicle 557.7±79.0) it was 95.5±26.5 mm^3; in the data set with BT-474 tumors (second experiment, 50 mg/kg p.o. once daily, vehicle 557.7±79.0), 20.8±15.9 mm^3.

The GI50 is the concentration at which growth is held to half of that of the control.
